{"source": "patent US6864288B2", "about": "“Regulation of phospholipase D activity” (Brigham & Women's Hospital, Inc., priority 1999, dated 2005)", "key": {"[1]": {"tested_on": "cabbage phospholipase D (cPLD, EC 3.1.4.4)", "experiment": "Purified cabbage PLD activity (choline release from PC), enzyme kinetics with lipids", "type": "biochemical", "conditions": "for Ki: cPLD 3 u/reaction, 30° C., PC 0.5-5 mM, Ki from Slope = Km/Vm (1 + [I]/Ki); for Vm app: cPLD in presence of the lipid, enzyme alone Vm 0.29 (nmoles/sec); for inhibition of cPLD (in words): compared with PSDP", "description": "Reactions were terminated at 30 sec intervals and choline release quantitated as in FIG. 2 legend. Values represent the mean for n≧4 for reactions in the absence of PSDP (●, r^2=0.963) and the mean for n≧3 with PSDP (Δ, r^2=0.995, 0.971 and 0.953 for 10, 100 and 1000 nM, respectively). CS Chem3D Pro software (CambridgeSoft Corp., Cambridge, Mass.) was used to calculate an energy minimized model of PSDP (inset).\n(§1) PMN lysates (90-130 μg protein), purified phospholipase D (3-30 units) (EC 3.1.4.4., Sigma Chemical Co.) or recombinant hPLD1b were warmed (37° C. for mammalian enzyme and 30° C. for cabbage, 3 min) and exposed to PSDP, PSMP or FDP (10-1000 nM, 5 min, 37° C. or 30° C.) followed by PC (0.5 to 5 mM) in Tris-HCl (50 mM pH 7.5) with CaCl2 (30 mM). Reactions were terminated at 30 second intervals (0-90 seconds) with Tris-HCl (1 M) plus EDTA (50 mM). Choline release was quantitated as in ref 26."}, "[2]": {"tested_on": "PLD activity in PMN lysates", "experiment": "PLD activity in PMN lysates after LTB4, lipid added to the lysate", "type": "biochemical, human", "conditions": "100 nM added to PMN lysates 60 sec after LTB4 100 nM", "description": "Lysates were generated from cells at rest or after exposure to agonist using a lysis buffer comprised of 0.1 M Hepes (pH 7.4), 0.7 mM sodium orthovanadate, 10 μM p-nitrophenylphosphate, 10 mM EGTA, 5.5% triton X-100, 0.5 M β-glycerophosphate, 10 mM phenylmethylsulfonylfluoride, 0.1 mM ammonium molybdate, 12 mM DFP, 5 μgml^−1 leupeptin, 2 μgml^−1 aprotinin and 7 μgml^−1 pepstatin A (as in ref 25) and utilized for bioassay.\nas §1\nBecause PLD activation occurs in vivo in the presence of many cofactors which modulate its activity, it was also determined the impact of PSDP on PLD activity in PMN lysates. Sixty seconds following LTB4, PSDP levels decreased (28%, FIG. 1) and PLD activity was maximal (FIG. 2)."}, "[3]": {"biological_target": "T1, recombinant human PLD1b (rhPLD1b) (Homo sapiens, UniProt Q13393)", "T1 construct": "made in house; host or cells: Spodoptera frugiperda Sf9 cells, recombinant baculovirus (pACGHLT transfer vector)", "T1 sequence (Q13393 1-1036 isoform Q13393-2)": "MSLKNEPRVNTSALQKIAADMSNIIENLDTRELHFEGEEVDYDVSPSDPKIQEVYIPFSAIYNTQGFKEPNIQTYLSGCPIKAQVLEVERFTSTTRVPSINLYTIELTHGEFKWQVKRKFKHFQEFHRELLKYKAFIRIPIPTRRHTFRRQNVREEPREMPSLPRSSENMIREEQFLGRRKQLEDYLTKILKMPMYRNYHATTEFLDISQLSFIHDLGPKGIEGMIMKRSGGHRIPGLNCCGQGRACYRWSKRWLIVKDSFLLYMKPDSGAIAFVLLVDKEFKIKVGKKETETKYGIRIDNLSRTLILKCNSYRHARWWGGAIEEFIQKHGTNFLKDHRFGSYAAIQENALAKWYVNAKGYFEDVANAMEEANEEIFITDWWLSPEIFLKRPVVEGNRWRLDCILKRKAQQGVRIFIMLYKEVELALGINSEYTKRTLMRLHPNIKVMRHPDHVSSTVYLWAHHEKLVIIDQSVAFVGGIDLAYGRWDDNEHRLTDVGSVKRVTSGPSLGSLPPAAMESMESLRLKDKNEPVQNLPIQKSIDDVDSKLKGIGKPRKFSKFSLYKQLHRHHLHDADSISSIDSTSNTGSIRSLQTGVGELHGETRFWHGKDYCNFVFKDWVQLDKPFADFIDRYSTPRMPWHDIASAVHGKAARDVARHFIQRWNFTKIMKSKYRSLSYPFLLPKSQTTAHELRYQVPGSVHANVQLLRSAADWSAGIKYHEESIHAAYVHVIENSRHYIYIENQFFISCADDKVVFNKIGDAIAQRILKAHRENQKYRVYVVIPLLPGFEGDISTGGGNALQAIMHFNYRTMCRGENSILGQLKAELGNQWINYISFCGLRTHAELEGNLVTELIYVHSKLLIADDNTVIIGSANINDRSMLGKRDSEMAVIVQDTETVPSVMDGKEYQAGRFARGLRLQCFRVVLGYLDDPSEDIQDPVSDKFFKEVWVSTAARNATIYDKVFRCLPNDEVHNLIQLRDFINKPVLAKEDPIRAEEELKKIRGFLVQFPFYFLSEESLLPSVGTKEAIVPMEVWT", "experiment": "Recombinant human PLD1b activity (choline release from PC), enzyme kinetics with PSDP", "type": "biochemical", "description": "Spodoptera frugiperda (Sf9) cells were cultured in suspension at 2×10^5 to 2×10^6 cells/ml TC 100 medium supplemented with 10% fetal calf serum (Gibco). A cDNA encoding human PLD1b (cloned from placental tissue) was inserted into the transfer vector pACGHLT (Pharmingen) downstream of, and in frame with, vector sequences encoding glutathione-S-transferase (GST), hexahistidine, a protein kinase A phosphorylation site and a thrombin cleavage site. The GST-hPLD1b construct was cotransfected into Sf9 cells with linearized, polyhedrin-minus (PH-), AcMNPV DNA, Bac-N-Blue, according to the supplier's instructions (Invitrogen). Homologous recombination between linearized virus and the transfer vector restored the function of essential viral gene ORF1629 to yield infectious, recombinant virus. After two rounds of plaque-purification, recombinant virus was amplified by large scale infections of Sf9 cells until a titer of 8×10^7 pfu/ml was obtained. […]\nas §1, with “Reactions were terminated at 30 second intervals (0-90 seconds) with Tris-HCl (1 M) plus EDTA (50 mM).” left out"}, "human PMN": {"tested_on": "human PMN", "experiment": "LTB4-stimulated superoxide anion generation by human PMN (cytochrome c)", "type": "cell-based", "conditions": "15-epi-LXa 1-100 nM, 5 min, then LTB4 100 nM, 10 min, 37° C.", "description": "(§2) Cell lysates (2-5×10^6 cells, 90-130 μg protein) were prepared from the same aliquots of PMN used to determine PSDP (see FIG. 1 & Methods), warmed to 37° C. and exposed to PC (2 mM in 50 mM Tris-HCl, pH 7.5, plus 30 mM CaCl2). Reactions were terminated at 30 sec intervals and choline release was quantitated (26). […] Superoxide anion generation by freshly isolated human PMN was determined (10 min, 37° C.) for LTB4 (100 nM), 15-epi-LXa (100 nM), and increasing concentrations of 15-epi-LXa (1-100 nM, 5 min, 37° C.) followed by LTB4 (100 nM, 10 min, 37° C.). Values reported in Panel C are the mean±S.E. for n=3 separate PMN donors. *P<0.05 by Student's t-test.\nFreshly isolated human PMN (1-3×10^6 PMN/ml HBSS+1.6 mM CaCl2) were incubated (5 min, 37° C.) in the presence of 15-epi-LXa (1-100 nM) or vehicle (0.1% ethanol), and then exposed (10 min) to LTB4 (100 nM) in the presence of cytochrome c (7 mg/ml). Superoxide anion generation was determined as in ref 22."}, "[4]": {"tested_on": "PLD activity in human PMN", "experiment": "LTB4-stimulated PLD activity in lysates of treated human PMN", "type": "cell-based", "description": "as §2\nPeripheral venous blood (˜180 ml) was obtained by venipuncture from healthy volunteers who denied taking any medication for at least two weeks and had given written informed consent to a protocol approved by Brighamn and Women's Hospital's Human Research Committee. […]\nas §1, with “Reactions were terminated at 30 second intervals (0-90 seconds) with Tris-HCl (1 M) plus EDTA (50 mM).” left out"}, "[32P]-PSDP in human PMN": {"tested_on": "[32P]-PSDP in human PMN", "experiment": "PSDP remodeling in [32P]-labeled human PMN (TLC, phosphoimaging)", "type": "cell-based", "description": "Panel A: Scheme for aspirin-triggered 15-epi-LXA4 biosynthesis and structure of the stable analog, 15-epi-16-para-fluoro-phenoxy-LXA4-methyl ester (15-epi-LXa) (left), and hypothetical scheme for PIPP signaling (right). PMN were labeled with [γ-^32P]-ATP and incubated (12.5×10^6 ml^−1, 37° C.) with LTB4 (●, 100 nM), 15-epi-LXa (♦, 100 nM), vehicle (□, 0.1% ethanol) or 15-epi-LXa (100 nM, 5 min) followed by LTB4 (▴, 100 nM). Non-saponifiable lipids were extracted and separated by TLC, and [^32P]-incorporation was quantitated by phosphoimaging (see Methods). Values are densitometric measurements.\nPeripheral venous blood (˜180 ml) was obtained by venipuncture from healthy volunteers who denied taking any medication for at least two weeks and had given written informed consent to a protocol approved by Brighamn and Women's Hospital's Human Research Committee. PMN were isolated from whole blood and steady state labeled with [γ-^32P]ATP (40 μCiml^−1, 90 min, 37° C.) as in (Levy, B. D., Petasis, N. A., and Serhan, C. N. (1997) Polyisoprenyl phosphates in intracellular signalling. Nature 389, 985-989). Labeled PMN were resuspended (20×10^6 ml^−1 PBS with 1 mM CaCl2, pH 7.40) and exposed to LTB4 (100 nM), 15-epi-LXa (100 nM) or vehicle (0.1% EtOH) for 0 to 300 seconds (37° C.). From each incubation, aliquots were removed at indicated intervals to determine the radiolabeling of nonsaponifiable lipids (10-12×10^6 PMN) and PLD activity (1-1.25×10^6 PMN). Materials present in each incubation were saponified, extracted and separated by TLC with phosphoimaging (model 425E and integration software; Molecular Dynamics), which was used for PSDP mass determination as in ref 22."}, "[5]": {"conditions": "effect on LTB4-stimulated changes in PSDP"}}, "data": [{"compound": "CC(C)=CCC/C(C)=C/CC/C(C)=C/C1C(COP(=O)(O)OP(=O)(O)O)C1(C)CC/C=C(\\C)CCC=C(C)C", "note": "(stereo in doubt) [Presqualene diphosphate, presqualene diphosphate]", "values": [{"measurement": "mode of inhibition (Lineweaver-burk analyses)", "setting": "[1]; PSDP 10 to 1000 nM", "result": "competitive inhibition model"}, {"measurement": "Ki", "setting": "[1]", "result": 0.02, "unit": "µM"}, {"measurement": "Vm app", "setting": "[1]", "result": 0.25}, {"measurement": "inhibition of PLD activity", "setting": "[2]", "result": "89.5+/−9.7%"}, {"measurement": "Ki", "setting": "[3]; rhPLD1b 0.3 u/reaction, 37° C.", "result": 0.006, "unit": "µM"}, {"measurement": "Vm app", "setting": "[3]; rhPLD1b in presence of the lipid, enzyme alone Vm 0.36 (nmoles/sec)", "result": 0.03}]}, {"compound": "CC(C)=CCC/C(C)=C/CC/C(C)=C/C1C(COP(=O)(O)O)C1(C)CC/C=C(\\C)CCC=C(C)C", "note": "(stereo in doubt) [Presqualene monophosphate, presqualene monophosphate]", "values": [{"measurement": "loss in inhibitory potency compared to PSDP", "setting": "[1]; cPLD", "result": "greater than 100 fold"}, {"measurement": "Ki", "setting": "[1]", "result": 3.21, "unit": "µM"}, {"measurement": "Vm app", "setting": "[1]", "result": 0.36}]}, {"compound": "COC(=O)CCC[C@H](O)[C@H](O)/C=C/C=C/C=C\\C=C\\[C@H](O)COc1ccc(F)cc1", "note": "[15-epi-LXa, 15-epi-16-para-fluoro-phenoxy-LXA4-methyl ester]", "values": [{"measurement": "inhibition of LTB4-stimulated O2- generation (in words)", "setting": "human PMN", "result": "potently inhibited"}, {"measurement": "inhibition of LTB4-stimulated PLD activity", "setting": "[4]; 15-epi-LXa 100 nM, 5 min, then LTB4 100 nM, at 60 sec", "result": "~81", "unit": "%"}, {"measurement": "effect alone on rate of PIPP remodeling", "setting": "[32P]-PSDP in human PMN; 100 nM, without LTB4", "result": "did not affect the rate of PIPP remodeling"}, {"measurement": "increase in [32P]-PSDP", "setting": "[32P]-PSDP in human PMN; 15-epi-LXa 100 nM, 5 min, then equimolar LTB4 100 nM, at 60 sec", "result": "~72", "unit": "%"}, {"measurement": "potency relative to 16-phenoxy-LXA4 and LXA4", "setting": "[32P]-PSDP in human PMN; [5]", "result": "1-2 orders of magnitude"}, {"measurement": "rank order of potency", "setting": "[32P]-PSDP in human PMN; [5]", "result": "15-epi-LXa>16-phenoxy-LXA4>LXA4"}]}, {"compound": "COC(=O)CCC[C@H](O)[C@H](O)/C=C/C=C/C=C\\C=C\\[C@H](O)COc1ccccc1", "note": "[16-phenoxy-LXA4, 16-phenoxy-LXA4-methyl ester]", "values": [{"measurement": "rank order of potency", "setting": "[32P]-PSDP in human PMN; [5]", "result": "15-epi-LXa>16-phenoxy-LXA4>LXA4"}]}, {"compound": "CCCCC/C=C\\C[C@@H](O)/C=C/C=C/C=C\\[C@@H](O)CCCC(=O)O", "note": "[LTB4, leukotriene B4]", "values": [{"measurement": "time of maximal increase in PLD activity", "setting": "[4]; LTB4 100 nM", "result": "≤ 60", "unit": "s"}, {"measurement": "decrease in [32P]-PSDP", "setting": "[32P]-PSDP in human PMN; LTB4 100 nM, within 60 sec, 37° C.", "result": 28, "unit": "%"}]}, {"compound": "CCCCC[C@H](O)/C=C/C=C\\C=C\\C=C\\[C@@H](O)[C@@H](O)CCCC(=O)O", "note": "[LXA4, lipoxin A4]", "values": [{"measurement": "rank order of potency", "setting": "[32P]-PSDP in human PMN; [5]", "result": "15-epi-LXa>16-phenoxy-LXA4>LXA4"}]}, {"compound": "CC(C)=CCC/C(C)=C/CC/C(C)=C/CC/C=C(\\C)CC/C=C(\\C)CCC=C(C)C", "note": "[Squalene]", "values": [{"measurement": "Vm app", "setting": "[1]", "result": 0.46}, {"measurement": "inhibition of cPLD (in words)", "setting": "[1]", "result": "Comparable inhibition was not evident"}]}, {"compound": "phosphatidic acid", "values": [{"measurement": "Vm app", "setting": "[1]", "result": 0.43}, {"measurement": "inhibition of cPLD (in words)", "setting": "[1]", "result": "Comparable inhibition was not evident"}]}]}
